# In US20250171430A1, “PYRAZOLYL COMPOUNDS AS KV7 CHANNEL ACTIVATORS” (Biohaven Therapeutics Ltd., priority 2022, published 2025):
# Molecular target: T1, Kv7.2/7.3 (Homo sapiens, UniProt O43525+O43526)
# T1 construct: Kv7.2 tetracycline-induced, Kv7.3 constitutive
# Assay: Kv7.2/7.3 Activation Assay (Thallium Flux Assay)
# Type: cell-based
# Settings: hKV7.2/7.3 cell line; test compound at single concentration of 10 μM; fluorescence at 90 sec normalized to positive control (retigabine, 30 μM)
# Outline: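 Single-point activity at 10 μM (0.1% DMSO, HEPES-buffered saline, pH 7.4) was scored from fluorescence at 90 s relative to 30 μM retigabine. Categories were none <0.15, moderate 0.15-0.7 and high >0.7. Thallium influx after stimulus addition was followed with FluxOR II Green dye in hKv7.2/7.3 cells, Kv7.2 expressed under overnight tetracycline (10 ng/mL) induction.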
row,SMILES,Kv7.2/7.3 Activity
1,"Cn1nc(NC(=O)C[C@H]2CC(F)(F)C2(F)F)c(C2CCC2)c1-c1ccc(C(C)(C)O)cc1 [Compound 34, (S)-N-(4-cyclobutyl-5-(4-(2-hydroxypropan-2-yl)phenyl)-1-methyl-1H-pyrazol-3-yl)-2-(2,2,3,3-tetrafluorocyclobutyl)acetamide]",+ (“+” Moderate Activity 0.15-0.7)
2,"Cn1nc(NC(=O)C[C@H]2CC(F)(F)C2(F)F)c(C2CCC2)c1C(F)(F)c1ccccc1 [Compound 39, (S)-N-(4-cyclobutyl-5-(difluoro(phenyl)methyl)-1-methyl-1H-pyrazol-3-yl)-2-(2,2,3,3-tetrafluorocyclobutyl)acetamide]",++ (“++” High Activity ≥ 0.7)
3,"O=C(C[C@@H]1CC(F)(F)C1(F)F)Nc1nn(CCO)c(Cc2ccccc2)c1C1CCC1 [Compound 65, (R)-N-(5-benzyl-4-cyclobutyl-1-(2-hydroxyethyl)-1H-pyrazol-3-yl)-2-(2,2,3,3-tetrafluorocyclobutyl)acetamide]",++ (“++” High Activity ≥ 0.7)
4,"Cn1nc(NC(=O)C[C@@H]2CC(F)(F)C2(F)F)c(C2CCC2)c1CCc1ccccc1 [Compound 61, (R)-N-(4-cyclobutyl-1-methyl-5-phenethyl-1H-pyrazol-3-yl)-2-(2,2,3,3-tetrafluorocyclobutyl)acetamide]",++ (“++” High Activity ≥ 0.7)
5,"CC[C@H](C)CC(=O)Nc1nn(C)c(-c2ccc(F)cc2)c1C1CCC1 [Compound 104, (S)-N-(4-cyclobutyl-5-(4-fluorophenyl)-1-methyl-1H-pyrazol-3-yl)-3-methylpentanamide]",++ (“++” High Activity ≥ 0.7)
6,"Cn1nc(NC(=O)CC(C)(C)C(F)(F)F)c(C2CCC2)c1-c1ccccc1 [Compound 13, N-(4-cyclobutyl-1-methyl-5-phenyl-1H-pyrazol-3-yl)-4,4,4-trifluoro-3,3-dimethylbutanamide]",++ (“++” High Activity ≥ 0.7)
7,"Cn1nc(NC(=O)[C@@H]2CC2(F)F)c(C2(C)CCC2)c1-c1ccc(F)cc1 [Compound 140, (S)-2,2-difluoro-N-(5-(4-fluorophenyl)-1-methyl-4-(1-methylcyclobutyl)-1H-pyrazol-3-yl)cyclopropane-1-carboxamide]",+ (“+” Moderate Activity 0.15-0.7)
8,"Cn1nc(NC(=O)C[C@H]2CC(F)(F)C2(F)F)c(CC(F)(F)F)c1-c1ccccc1 [Compound 38, (S)-N-(1-methyl-5-phenyl-4-(2,2,2-trifluoroethyl)-1H-pyrazol-3-yl)-2-(2,2,3,3-tetrafluorocyclobutyl)acetamide]",++ (“++” High Activity ≥ 0.7)
9,"Cn1nc(NC(=O)C[C@H](O)C(C)(C)C)c(C2CCC2)c1-c1ccc(F)cc1 [Compound 115, (S)-N-(4-cyclobutyl-5-(4-fluorophenyl)-1-methyl-1H-pyrazol-3-yl)-3-hydroxy-4,4-dimethylpentanamide]",+ (“+” Moderate Activity 0.15-0.7)
10,"CCn1nc(NC(=O)CC(C)C)c(C2CC2)c1C [Compound 5, N-(4-cyclopropyl-1-ethyl-5-methyl-1H-pyrazol-3-yl)-3-methylbutanamide]",− (“−” No Activity < 0.15)
11,"Cn1nc(NC(=O)C[C@H]2CC(F)(F)C2(F)F)c(C2CCC2)c1C1CCCCC1 [Compound 67, (S)-N-(4-cyclobutyl-5-cyclohexyl-1-methyl-1H-pyrazol-3-yl)-2-(2,2,3,3-tetrafluorocyclobutyl)acetamide]",+ (“+” Moderate Activity 0.15-0.7)
12,"CCn1nc(NC(=O)CC(C(F)(F)F)C(F)(F)F)c(C2CC2)c1C [Compound 2, N-(4-cyclopropyl-1-ethyl-5-methyl-1H-pyrazol-3-yl)-4,4,4-trifluoro-3-(trifluoromethyl)butanamide]",+ (“+” Moderate Activity 0.15-0.7)
13,"Cn1nc(NC(=O)C[C@H]2CC2(F)F)c(C2CCC2)c1-c1ccc(F)cc1 [Compound 99, (S)-N-(4-cyclobutyl-5-(4-fluorophenyl)-1-methyl-1H-pyrazol-3-yl)-2-(2,2-difluorocyclopropyl)acetamide]",++ (“++” High Activity ≥ 0.7)
14,"Cn1nc(NC(=O)CC2CC(F)(F)C2)c(C2CCC2)c1-c1ccccc1F [Compound 106, N-(4-cyclobutyl-5-(2-fluorophenyl)-1-methyl-1H-pyrazol-3-yl)-2-(3,3-difluorocyclobutyl)acetamide]",++ (“++” High Activity ≥ 0.7)
15,"Cn1nc(NC(=O)[C@H]2C[C@@H](C(F)(F)F)C2)c(C2CCC2)c1-c1ccc(F)cc1 [Compound 118, (1S,3S)-N-(4-cyclobutyl-5-(4-fluorophenyl)-1-methyl-1H-pyrazol-3-yl)-3-(trifluoromethyl)cyclobutane-1-carboxamide]",++ (“++” High Activity ≥ 0.7)

# Other lines, results leading:
row,Kv7.2/7.3 Activity,SMILES
1,++ (“++” High Activity ≥ 0.7),"Cn1nc(NC(=O)C2(C(F)(F)F)CC2)c(C2CCC2)c1C1CC(F)(F)C1 [Compound 158, N-(4-cyclobutyl-5-(3,3-difluorocyclobutyl)-1-methyl-1H-pyrazol-3-yl)-1-(trifluoromethyl)cyclopropane-1-carboxamide]"
2,− (“−” No Activity < 0.15),"Cn1nc(NC(=O)[C@H]2CC2(F)F)c(C2CCC2)c1-c1cnc(C(F)(F)F)s1 [Compound 298, (R)-N-(4-cyclobutyl-1-methyl-5-(2-(trifluoromethyl)thiazol-5-yl)-1H-pyrazol-3-yl)-2,2-difluorocyclopropane-1-carboxamide]"
3,++ (“++” High Activity ≥ 0.7),"Cn1nc(NC(=O)C2CC3(C2)CC(F)(F)C3)c(C2CCC2)c1-c1ccc(Cl)s1 [Compound 249, N-(5-(5-chlorothiophen-2-yl)-4-cyclobutyl-1-methyl-1H-pyrazol-3-yl)-6,6-difluorospiro[3.3]heptane-2-carboxamide]"
4,− (“−” No Activity < 0.15),"Cn1nc(NC(=O)[C@H]2CC2(F)F)c(C2CCC2)c1-c1ccc(OC(F)(F)F)cc1 [Compound 173, (R)-N-(4-cyclobutyl-1-methyl-5-(4-(trifluoromethoxy)phenyl)-1H-pyrazol-3-yl)-2,2-difluorocyclopropane-1-carboxamide]"
5,+ (“+” Moderate Activity 0.15-0.7),"C[C@H](C(=O)Nc1nn(C)c(-c2cc(F)cc(F)c2)c1C1CCC1)C1CC(F)(F)C1 [Compound 268, (S)-N-(4-cyclobutyl-5-(3,5-difluorophenyl)-1-methyl-1H-pyrazol-3-yl)-2-(3,3-difluorocyclobutyl)propanamide]"
6,+ (“+” Moderate Activity 0.15-0.7),"Cn1nc(NC(=O)C2CC(F)(F)C2)c(C2CCC2)c1-c1ccc(OC(F)F)nc1 [Compound 272, N-(4-cyclobutyl-5-(6-(difluoromethoxy)pyridin-3-yl)-1-methyl-1H-pyrazol-3-yl)-3,3-difluorocyclobutane-1-carboxamide]"
7,++ (“++” High Activity ≥ 0.7),"Cn1nc(NC(=O)OC2CC(F)(F)C2)c(C2CCC2)c1-c1cc(F)cc(F)c1 [Compound 269, 3,3-difluorocyclobutyl (4-cyclobutyl-5-(3,5-difluorophenyl)-1-methyl-1H-pyrazol-3-yl)carbamate]"
8,++ (“++” High Activity ≥ 0.7),"Cn1nc(NC(=O)C2CC(F)(F)C2)c(C2CCC2)c1-c1ccc(Cl)s1 [Compound 194, N-(5-(5-chlorothiophen-2-yl)-4-cyclobutyl-1-methyl-1H-pyrazol-3-yl)-3,3-difluorocyclobutane-1-carboxamide]"
9,− (“−” No Activity < 0.15),"Cn1nc(NC(=O)C2COC2)c(C2CCC2)c1-c1cc(F)c(F)c(F)c1 [Compound 275, N-(4-cyclobutyl-1-methyl-5-(3,4,5-trifluorophenyl)-1H-pyrazol-3-yl)oxetane-3-carboxamide]"
10,+ (“+” Moderate Activity 0.15-0.7),"Cn1nc(NC(=O)NC2CC(F)(F)C2)c(C2CCC2)c1-c1ccc(OC(F)(F)F)cc1 [Compound 285, 1-(4-cyclobutyl-1-methyl-5-(4-(trifluoromethoxy)phenyl)-1H-pyrazol-3-yl)-3-(3,3-difluorocyclobutyl)urea]"
11,++ (“++” High Activity ≥ 0.7),"Cn1nc(NC(=O)NC2CC(F)(F)C2)c(C2CCC2)c1-c1ccc(Cl)s1 [Compound 211, 1-(5-(5-chlorothiophen-2-yl)-4-cyclobutyl-1-methyl-1H-pyrazol-3-yl)-3-(3,3-difluorocyclobutyl)urea]"
12,++ (“++” High Activity ≥ 0.7),"Cn1nc(NC(=O)NCC(F)F)c(C2CCC2)c1C1CC(F)(F)C1 [Compound 296, 1-(4-cyclobutyl-5-(3,3-difluorocyclobutyl)-1-methyl-1H-pyrazol-3-yl)-3-(2,2-difluoroethyl)urea]"
13,− (“−” No Activity < 0.15),"Cn1nc(NC(=O)C2(C)CC(F)(F)C2)c(C2CCC2)c1-c1ccc(C(F)(F)F)cc1 [Compound 208, N-(4-cyclobutyl-1-methyl-5-(4-(trifluoromethyl)phenyl)-1H-pyrazol-3-yl)-3,3-difluoro-1-methylcyclobutane-1-carboxamide]"
14,− (“−” No Activity < 0.15),"Cn1nc(NC(=O)[C@@H]2CC2(F)F)c(C2CCC2)c1-c1ccc(F)cc1F [Compound 160, (S)-N-(4-cyclobutyl-5-(2,4-difluorophenyl)-1-methyl-1H-pyrazol-3-yl)-2,2-difluorocyclopropane-1-carboxamide]"
15,+ (“+” Moderate Activity 0.15-0.7),"Cn1nc(NC(=O)[C@H]2C[C@](C)(F)C2)c(C2CCC2)c1-c1cnc(C(F)(F)F)s1 [Compound 203, (1r,3r)-N-(4-cyclobutyl-1-methyl-5-(2-(trifluoromethyl)thiazol-5-yl)-1H-pyrazol-3-yl)-3-fluoro-3-methylcyclobutane-1-carboxamide]"
16,+ (“+” Moderate Activity 0.15-0.7),"Cn1nc(NC(=O)NCC(C)(C)C)c(C2CCC2)c1-c1ccc(F)cc1 [Compound 251, 1-(4-cyclobutyl-5-(4-fluorophenyl)-1-methyl-1H-pyrazol-3-yl)-3-neopentylurea]"
